The text below walks through data of patent US20150353495A1 (PORTOLA PHARMACEUTICALS, INC., priority 2010, published 2015).

SMILES strings stand for the structures.

Holding throughout (type): biochemical
For one experiment, the target named is T1, JAK3 (Homo sapiens, UniProt P52333).
T1 construct: 5 μl of catalytic domain recombinant Kinase enzyme+Tyr peptide substrate (Invitrogen, CA); purchased Invitrogen
Kind of experiment: Z'-LYTE kinase assay JAK3. The essentials: (§1)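 Catalytic-domain recombinant kinase was incubated with Tyr6 FRET peptide, ATP and compound (1% DMSO final) for 1 h at room temperature. Protease development followed for 1 h, cleaving only non-phosphorylated peptide. Inhibition of phosphorylation was read as coumarin/fluorescein FRET fluorescence.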

In the next experiment the target is T2, JAK1 (Homo sapiens, UniProt P23458).
T2 construct: 5 μl of catalytic domain recombinant Kinase enzyme+Tyr peptide substrate (Invitrogen, CA); purchased Invitrogen
Kind of experiment: Z'-LYTE kinase assay JAK1. In a few lines:
as §1

For the next experiment, the target named is T3, JAK2 (Homo sapiens, UniProt O60674).
T3 construct: 5 μl of catalytic domain recombinant Kinase enzyme+Tyr peptide substrate (Invitrogen, CA); purchased Invitrogen
Kind of experiment: Z'-LYTE kinase assay JAK2. The essentials: as §1

T3 sequence (O60674 849-1124 limits assumed): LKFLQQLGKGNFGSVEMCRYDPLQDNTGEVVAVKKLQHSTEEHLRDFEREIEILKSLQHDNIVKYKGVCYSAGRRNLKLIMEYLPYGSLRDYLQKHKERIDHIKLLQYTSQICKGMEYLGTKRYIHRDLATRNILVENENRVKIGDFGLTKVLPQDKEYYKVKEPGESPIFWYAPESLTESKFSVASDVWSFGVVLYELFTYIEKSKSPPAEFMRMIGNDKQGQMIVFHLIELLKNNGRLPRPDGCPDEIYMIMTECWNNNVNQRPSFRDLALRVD
T1 sequence (P52333 822-1111 limits assumed): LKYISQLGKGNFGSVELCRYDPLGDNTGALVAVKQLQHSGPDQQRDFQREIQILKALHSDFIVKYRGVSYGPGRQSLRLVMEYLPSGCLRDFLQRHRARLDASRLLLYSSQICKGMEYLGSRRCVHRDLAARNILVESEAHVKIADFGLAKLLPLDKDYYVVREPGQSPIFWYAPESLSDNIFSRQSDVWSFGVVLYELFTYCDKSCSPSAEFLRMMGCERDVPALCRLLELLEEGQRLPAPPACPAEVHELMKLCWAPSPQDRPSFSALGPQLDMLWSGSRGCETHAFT
T2 sequence (P23458 875-1153 limits assumed): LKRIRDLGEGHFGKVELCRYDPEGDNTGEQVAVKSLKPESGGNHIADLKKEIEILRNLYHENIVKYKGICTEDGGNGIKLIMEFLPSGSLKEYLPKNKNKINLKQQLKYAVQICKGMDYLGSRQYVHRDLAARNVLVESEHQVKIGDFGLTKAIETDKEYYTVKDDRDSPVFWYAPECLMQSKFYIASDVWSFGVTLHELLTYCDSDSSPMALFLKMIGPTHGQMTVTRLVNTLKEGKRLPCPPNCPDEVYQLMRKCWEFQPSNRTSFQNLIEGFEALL

One may read the IC50 as the concentration that inhibits the measured activity by half. In the case of `CN(C)C(=O)c1ccc(Nc2cc(NCc3cccc4c3ccn4C)c(C(N)=O)cn2)cc1` [Example 304, 6-(4-(dimethylcarbamoyl)phenylamino)-4-((1-methyl-1H-indol-4-yl)methylamino)nicotinamide], the IC50 lay in the range of 1 to 10 nM on JAK3, 100 to 1000 nM against JAK1 and 100 to 1000 nM on JAK2.
With `NC(=O)c1cnc(Nc2ccc(C(F)(F)F)cc2)cc1NCc1cncc(F)c1` [Example 305], the figures for the IC50 against JAK3, on JAK1 and against JAK2 were 100 to 1000 nM, more than 1000 nM and more than 1000 nM, respectively.
Consider `NC(=O)c1cnc(Nc2cccc(F)c2)cc1NCc1cncc(F)c1` [Example 306, 6-(3-fluorophenylamino)-4-((5-fluoropyridin-3-yl)methylamino)nicotinamide], for which the half-inhibitory concentration (IC50) was in the range of 10 to 100 nM against JAK3, 100 to 1000 nM against JAK1 and 100 to 1000 nM on JAK2.
For the compound `NC(=O)c1cnc(Nc2cccc(Cl)c2)cc1NCc1cncc(F)c1` [Example 307, 6-(3-chlorophenylamino)-4-((5-fluoropyridin-3-yl)methylamino)nicotinamide], the IC50 against JAK3 is 10 to 100 nM; on JAK1 it was more than 1000 nM; against JAK2, 100 to 1000 nM.
With `N#Cc1ccc(Nc2cc(NCc3cncc(F)c3)c(C(N)=O)cn2)cc1` [Example 308, 6-(4-cyanophenylamino)-4-((5-fluoropyridin-3-yl)methylamino)nicotinamide], the IC50 is 10 to 100 nM on JAK3, more than 1000 nM on JAK1 and more than 1000 nM at JAK2.
In the case of `NC(=O)c1cnc(Nc2ccc(OC(F)F)cc2)cc1NCc1cncc(F)c1` [Example 309, 6-(4-(difluoromethoxy)phenylamino)-4-((5-fluoropyridin-3-yl)methylamino)nicotinamide], the IC50 against JAK3 is 10 to 100 nM; at JAK1 it was more than 1000 nM; against JAK2 it was 100 to 1000 nM.
For the compound `NC(=O)c1cnc(Nc2ccc(OC(F)(F)F)cc2)cc1NCc1cncc(F)c1` [Example 310], the IC50 against JAK3 was 100 to 1000 nM; at JAK1 it was more than 1000 nM; on JAK2, more than 1000 nM.
Take `Cc1ccc(Nc2cc(NCc3cncc(F)c3)c(C(N)=O)cn2)cc1` [Example 311, 4-((5-fluoropyridin-3-yl)methylamino)-6-(p-tolylamino)nicotinamide]: the IC50 against JAK3 was 10 to 100 nM; against JAK1 it was 100 to 1000 nM; against JAK2 it was 100 to 1000 nM.
As for `CN(C)C(=O)c1ccc(Nc2cc(NCc3cncc(F)c3)c(C(N)=O)cn2)cc1` [Example 312, 6-(4-(dimethylcarbamoyl)phenylamino)-4-((5-fluoropyridin-3-yl)methylamino)nicotinamide], the IC50 lay within 1 to 10 nM on JAK3, 100 to 1000 nM against JAK1 and 100 to 1000 nM against JAK2.
On to `NC(=O)c1cnc(Nc2ccc(C(=O)NCC(F)(F)F)cc2)cc1NCc1cncc(F)c1` [Example 313, 4-((5-fluoropyridin-3-yl)methylamino)-6-(4-(2,2,2-trifluoroethylcarbamoyl)phenylamino)nicotinamide], for which the IC50 at JAK3 lay within 10 to 100 nM; on JAK1, 100 to 1000 nM; against JAK2, 100 to 1000 nM.
In the case of `CN(CC(F)(F)F)C(=O)c1ccc(Nc2cc(NCc3cncc(F)c3)c(C(N)=O)cn2)cc1` [Example 314, 4-((5-fluoropyridin-3-yl)methylamino)-6-(4-(methyl(2,2,2-trifluoroethyl)carbamoyl)phenylamino)nicotinamide], the 50% inhibitory concentration (IC50) at JAK3 was 10 to 100 nM; against JAK1, more than 1000 nM; against JAK2, 100 to 1000 nM.
Turning to `COc1ccc(Nc2cc(NCc3cccc(F)n3)c(C(N)=O)cn2)cc1` [Example 315, 4-((6-fluoropyridin-2-yl)methylamino)-6-(4-methoxyphenylamino)nicotinamide], the IC50 was 10 to 100 nM at JAK3, 100 to 1000 nM at JAK1 and 100 to 1000 nM on JAK2.
As to `CN(C)C(=O)c1ccc(Nc2cc(NCc3cccc(F)n3)c(C(N)=O)cn2)cc1` [Example 316, 6-(4-(dimethylcarbamoyl)phenylamino)-4-((6-fluoropyridin-2-yl)methylamino)nicotinamide], the IC50 was 1 to 10 nM at JAK3, 100 to 1000 nM against JAK1 and 100 to 1000 nM against JAK2.
Take `COc1ccc(Nc2cc(NCc3cccc4ccn(C)c34)c(C(N)=O)cn2)cc1` [Example 317, 6-(4-methoxyphenylamino)-4-((1-methyl-1H-indol-7-yl)methylamino)nicotinamide]: the 50% inhibitory concentration (IC50) against JAK3 was 100 to 1000 nM; on JAK1, more than 1000 nM; on JAK2, more than 1000 nM.
Turning to `CN(C)C(=O)c1ccc(Nc2cc(NCc3cccc4ccn(C)c34)c(C(N)=O)cn2)cc1` [Example 318, 6-(4-(dimethylcarbamoyl)phenylamino)-4-((1-methyl-1H-indol-7-yl)methylamino)nicotinamide], the results for the IC50 at JAK3, at JAK1 and against JAK2 were 10 to 100 nM, more than 1000 nM and 100 to 1000 nM, respectively.
Consider `NC(=O)c1cnc(Nc2cc(F)cc(F)c2)cc1NCc1cccc2[nH]ccc12` [Example 323, 4-((1H-indol-4-yl)methylamino)-6-(3,5-difluorophenylamino)nicotinamide], for which the values for the IC50 against JAK3, against JAK1 and against JAK2 were 100 to 1000 nM, more than 1000 nM and more than 1000 nM, respectively.
For `CC(=O)N1CC(c2ccc(Nc3cc(NCc4ccccc4)c(C(N)=O)cn3)cc2)C1` [Example 324, 6-(4-(1-acetylazetidin-3-yl)phenylamino)-4-(benzylamino)nicotinamide], the results for the IC50 on JAK3, against JAK1 and against JAK2 were 1 to 10 nM, 100 to 1000 nM and 100 to 1000 nM, respectively.
For `NC(=O)c1cnc(Nc2ccc(C3CNC3)cc2)cc1NCc1ccccc1` [Example 325, 6-(4-(azetidin-3-yl)phenylamino)-4-(benzylamino)nicotinamide], the IC50 was 1 to 10 nM against JAK3, more than 1000 nM against JAK1 and 100 to 1000 nM at JAK2.
For `CCC(=O)N1CC(c2ccc(Nc3cc(NCc4ccccc4)c(C(N)=O)cn3)cc2)C1` [Example 326, 4-(benzylamino)-6-(4-(1-propionylazetidin-3-yl)phenylamino)nicotinamide], the half-maximal inhibitory concentration (IC50) lay within 1 to 10 nM against JAK3, 100 to 1000 nM against JAK1 and 100 to 1000 nM at JAK2.
As for `COC(=O)N1CC(c2ccc(Nc3cc(NCc4ccccc4)c(C(N)=O)cn3)cc2)C1` [Example 327, methyl 3-(4-(4-(benzylamino)-5-carbamoylpyridin-2-ylamino)phenyl)azetidine-1-carboxylate], the IC50 against JAK3 was 10 to 100 nM; at JAK1 it was more than 1000 nM; against JAK2, 100 to 1000 nM.
Consider `CN(C)C(=O)Cc1ccc(Nc2cc(NCc3ccccc3)c(C(N)=O)cn2)cc1` [Example 328, 4-(benzylamino)-6-(4-(2-(dimethylamino)-2-oxoethyl)phenylamino)nicotinamide], for which the IC50 at JAK3 was in the range of 1 to 10 nM; against JAK1, 100 to 1000 nM; against JAK2, 100 to 1000 nM.
For the compound `NC(=O)c1cnc(Nc2ccc(CC(=O)N3CCCC3)cc2)cc1NCc1ccccc1` [Example 329, 4-(benzylamino)-6-(4-(2-oxo-2-(pyrrolidin-1-yl)ethyl)phenylamino)nicotinamide], the results for the IC50 against JAK3, against JAK1 and at JAK2 were 1 to 10 nM, 100 to 1000 nM and 100 to 1000 nM, respectively.
Regarding `NC(=O)c1cnc(Nc2ccc(CC(=O)N3CCOCC3)cc2)cc1NCc1ccccc1` [Example 330, 4-(benzylamino)-6-(4-(2-morpholino-2-oxoethyl)phenylamino)nicotinamide], the results for the IC50 against JAK3, at JAK1 and against JAK2 were 1 to 10 nM, 100 to 1000 nM and 100 to 1000 nM, respectively.
